According to patent US9695222B2, “Ghrelin mimetic polypeptide hapten immunoconjugates having improved solubility and immunogenicity and methods of use thereof” (The Scripps Research Institute, priority 2011, dated 2017):
In brackets after ≈: the same amount, converted by molar mass. Read-outs that look alike come from different tables or passages of the source. Non-standard residues stand in square brackets, D forms with d. Residues, ends and D or L forms follow the SMILES beside them. *: point of attachment. PEG4 = NCCOCCOCCOCCOCCC(=O)O; Octanoyl = CCCCCCCC(=O)*; Butyryl = CCCC(=O)*

Tests used:
physchem = settings: water
Ser-3-n-octanoyl ghrelin = assay: Competition ELISA of plasma of immunized mice (Kd-app for ghrelin); type: binding; settings: Tables 4A and 4B
Experimental: Immunization involved five (5) immunizations over ten (10) weeks. Age and weight-matched mice received immunizations (i.p. 0.2 mL) 90 min before the dark cycle on experimental days 0, 14 (2 weeks), 28 (4 weeks), 49 (7 weeks) and 70 (10 weeks). All immunizations used ALUM (Pierce) as the adjuvant, and contained 50 μg of protein (i.e. immunoconjugates of Ghr1, Ghr2, PEG-Ghr4 and PEG-Ghr5 peptides with carrier proteins KLH, TT or CRM197). Tail blood was collected one week post-immunization, centrifuged and plasma analyzed for antibody titers and ghrelin binding affinity.
For competitive ELISA, plates (96-well) were coated overnight at 4° C. with freshly prepared ghrelin-BSA conjugate. The plates were blocked with 4% skim milk, washed and plasma samples were added at appropriate dilutions. The plates were washed and Ser-3-n-octanoyl ghrelin was added to the wells in a concentration series starting at 100 μM. Plates were incubated for 1 h at 37° C., thoroughly washed, and goat anti-mouse-horseradish peroxidase (HRP) conjugate (Pierce) was added. After an incubation period of 1 h at RT, plates were thoroughly washed again and the HRP substrate (TMB substrate kit; Pierce) was added, the reaction was allowed to develop for 15 min and stopped by the addition of 2M H2SO4. The absorbance (450 nm) was read and the values plotted using GraFit (Erithacus Software Ltd). The free antigen concentration at which the absorbance value is 50% of the maximum absorbance was considered the average Kd-app of the plasma for ghrelin.

[1] = Hydrolytic stability of ghrelin haptens in buffered solutions for 7 days; type: physicochemical
Experimental: To test the hydrolytic stability of the Ghrelin haptens, 1 mg/mL solutions of Ghr1, Ghr4, Ghr5 and the corresponding Ghr4 and Ghr5 haptens comprising the spacer moiety (PEG-Ghr4 and PEG-Ghr5 respectively) were maintained in buffered solutions for 7 days at either 4° C. or 37° C. at pH values of pH5 (in 10 mM citrate buffer), pH6 (in 10 mM maleate buffer) or pH7 (in 10 mM phosphate buffer). FIG. 2 is a graphical representation comparing the percentage of the active acyl form of each Ghrelin hapten present after seven days with the percentage of total hydrolysis and the percentage of total oxidative degradation for each hapten.

[2] = not given; remark: listed apart in the source

Row | SMILES | Solubility of hapten at pH5 | solubility (physchem; pH 6) | solubility (physchem; pH 7) | Affinity of induced anti-ghrelin antibodies (Ser-3-n-octanoyl ghrelin) | Selectivity of induced antibodies for acylated ghrelin over the des-acyl form (Ser-3-n-octanoyl ghrelin) | solubility (physchem; pH 5) | other results
1 | CCCC(=O)OC[C@H](NC(=O)[C@H](CO)NC(=O)CN)C(=O)N[C@@H](Cc1ccccc1)C(=O)N[C@@H](CC(C)C)C(=O)N[C@@H](CS)C(N)=O [Ghr4, GSS(butyryl)FLC-NH2] (H-GSS(Butyryl)FLC-NH2) | insoluble | > 1000 µg/mL | < 100 µg/mL | – | – | – | –
2 | CCCC(=O)OC[C@H](NC(=O)[C@H](CO)NC(=O)CN)C(=O)N[C@@H](Cc1ccccc1)C(=O)N[C@@H](CC(C)C)C(=O)N[C@@H](CO)C(=O)N1CCC[C@H]1C(=O)N[C@@H](CCC(=O)O)C(=O)N[C@@H](Cc1c[nH]cn1)C(=O)N[C@@H](CCC(N)=O)C(=O)N[C@@H](CS)C(N)=O [Ghr1] | – | > 1000 µg/mL | > 1000 µg/mL | high affinity anti-ghrelin antibodies in some instances | no particular selectivity | > 1000 µg/mL | –
3 | CCCCCCCC(=O)OC[C@H](NC(=O)[C@H](CO)NC(=O)CN)C(=O)N[C@@H](Cc1ccccc1)C(=O)N[C@@H](CC(C)C)C(=O)N[C@@H](CS)C(N)=O [Ghr5, GSS(octanoyl)FLC-NH2] (H-GSS(Octanoyl)FLC-NH2) | insoluble | – | – | – | – | – | Solubility of hapten at pH6 (pH6): insoluble; Solubility of hapten at pH7 (pH7): insoluble
4 | CCCCCCCC(=O)OC[C@H](NC(=O)[C@H](CO)NC(=O)CN)C(=O)N[C@@H](Cc1ccccc1)C(=O)N[C@@H](CC(C)C)C(=O)NCCOCCOCCOCCOCCC(=O)N[C@@H](CS)C(N)=O [PEG-Ghr5, GSS(octanoyl)FL-PEG4-C-NH2] (H-GSS(Octanoyl)FL[PEG4]C-NH2) | – | > 1000 µg/mL | ~400 µg/mL (≈ 406 µM) | – | – | > 1000 µg/mL | Hydrolysis relative to Ghr5 without the spacer moiety ([1]; 7 days, FIG. 2): less hydrolysis; Oxidative degradation relative to Ghr5 without the spacer moiety ([1]; 7 days, FIG. 2): significantly reduced oxidative degradation; Hydrolysis compared with native protein (rGhrelin) ([1]; pH 5, 7 days, 4° C.): approximately the same amount of hydrolysis as the native protein; Oxidative degradation compared with Ghr5 hapten ([1]; pH 5, 7 days, 4° C.): significantly less oxidative degradation
5 | CC(C)C[C@H](NC(=O)[C@H](CCCCN)NC(=O)[C@H](C)NC(=O)[C@@H]1CCCN1C(=O)[C@@H]1CCCN1C(=O)[C@H](CCCCN)NC(=O)[C@H](CCCCN)NC(=O)[C@H](CO)NC(=O)[C@H](CCC(=O)O)NC(=O)[C@H](CCCCN)NC(=O)[C@H](CCCNC(=N)N)NC(=O)[C@H](CCC(N)=O)NC(=O)[C@H](CCC(N)=O)NC(=O)[C@@H](N)CS)C(=O)N[C@@H](CCC(N)=O)C(=O)N1CCC[C@H]1C(=O)N[C@@H](CCCNC(=N)N)C(N)=O [Ghr2] | – | > 1000 µg/mL | > 1000 µg/mL | high affinity anti-ghrelin antibodies in some instances | no particular selectivity | > 1000 µg/mL | –
6 | CCCC(=O)OC[C@H](NC(=O)[C@H](CO)NC(=O)CN)C(=O)N[C@@H](Cc1ccccc1)C(=O)N[C@@H](CC(C)C)C(=O)NCCOCCOCCOCCOCCC(=O)N[C@@H](CS)C(N)=O [PEG-Ghr4, GSS(butyryl)FL-PEG4-C-NH2] (H-GSS(Butyryl)FL[PEG4]C-NH2) | – | – | – | – | – | – | solubility ([2]; pH5): > 1000 µg/mL; solubility ([2]; pH6): > 1000 µg/mL; solubility ([2]; pH7): > 1000 µg/mL
